Reference: US5677419A, “Cyclic vasoactive peptide analogs” (Hoffmann-La Roche Inc., priority 1994, dated 1997)
Where a SMILES comes first, the peptide text is derived from it. Bridges are numbered along the chain shown (N, C = ends). [ ]: non-standard residue; d: D form. Phe(4-NH2) = Nc1ccc(C[C@H](N)C(=O)O)cc1; Phe(4-F) = N[C@@H](Cc1ccc(F)cc1)C(=O)O; 1Nal = N[C@@H](Cc1cccc2ccccc12)C(=O)O; Nle = CCCC[C@H](N)C(=O)O

Legend:
[1] = tested on: guinea pigs; assay: In vivo bronchodilator activity by tracheal instillation against histamine challenge; set-up: species or system guinea pig; conditions: anesthetized male guinea pigs, inhibition of histamine (i.v.)-induced rise in tracheal pressure
Description: The in vivo bronchodilator activity of VIP and VIP analogs in guinea pigs was assessed by the tracheal instillation route of administration. This technique utilized male guinea pigs (Hartley strain, Charles River) weighing 400-600 g. Animals were anesthetized with urethane (2 g/kg) intraperitoneally and a polyethylene cannula was inserted into the jugular vein for intraveneous drug administration.
The animals were tracheotomized and dosing solutions of distilled water or test compound dissolved in distilled water were administered into the trachea, approximately three-quarters the distance to the carina with a pipette. The concentration of the dosing solution was adjusted to deliver a constant volume of […]. The animals were placed supine for one minute to aid drug delivery to the lung. One minute later, spontaneous breathing was arrested with succinylcholine chloride (1.2 mg/kg) administered intraveneously, and the animals were ventilated with a HARVARD Model 680 small animal respirator set at 40 breaths/min and 4.0 cm^3 stroke volume. The animals were challenged with a maximal constrictory dose of histamine ([…], i.v.) and tracheal pressure (cm of water) was recorded from a STATHAM pressure transducer (P 32 AA).
The change in tracheal pressure was averaged for at least 3 control and 3 drug-treated animals and percent inhibition was calculated. The relative potency of compounds administered by the instillation route was determined by administering various doses of test compound and calculating the median effective dose (ED50 value). The ED50 was determined from log dose-response curves generated by at least 3 doses that caused inhibitory effects between 10% and 90%. The correlation coefficients for the regression line of each compound was always greater than 0.95.
For determination of the time course of inhibition for various compounds, the time between administration of compound and challenge with histamine was varied. The time course of activity was calculated as the time when inhibition decreased to 40%.
The results summarized in Table II show the in vivo bronchodilator activity of the VIP analogs in comparison to native VIP.

[2] = tested on: guinea pig tracheal smooth muscle; assay: Tracheal relaxant activity of VIP analogs on isolated guinea pig tracheal rings; type: cell-based; conditions: cumulative concentration response, relaxation as % of maximum response to VIP (10^-6 M=100%), three tissues pooled, linear regression
In short: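 Male guinea pig tracheal rings under 1.5 g resting tension in Krebs at 37° C, 95% O2/5% CO2, isometric tension. Cumulative concentration-response curves; relaxation as % of response to 10^-6 M VIP added at end; three tissues pooled, EC50 by linear regression.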

| SMILES | EC50 [2] [pM] | Bronchodilator activity of VIP analogs in guinea pigs, ED50 [1] [μg] |
| --- | --- | --- |
| CCCC[C@H](NC(=O)[C@H](CCC(N)=O)NC(=O)[C@H](CCCCN)NC(=O)[C@H](CCCNC(=N)N)NC(=O)[C@H](CC(C)C)NC(=O)[C@H](CCCCN)NC(=O)[C@@H](NC(=O)[C@H](Cc1ccc(O)cc1)NC(=O)[C@H](CC(N)=O)NC(=O)[C@H](CC(=O)O)NC(=O)[C@@H](NC(=O)[C@H](Cc1ccc(F)cc1)NC(=O)[C@@H](NC(=O)[C@H](C)NC(=O)[C@H](CC(=O)O)NC(=O)[C@H](CO)NC(=O)[C@H](Cc1c[nH]cn1)NC(C)=O)C(C)C)[C@@H](C)O)[C@@H](C)O)C(=O)N[C@@H](C)C(=O)N[C@@H](C)C(=O)N[C@@H](CCCCN)C(=O)N[C@H]1CCCCNC(=O)C[C@@H](C(=O)N[C@H](C(=O)N[C@@H](CC(C)C)C(=O)N[C@H](C(N)=O)[C@@H](C)O)C(C)C)NC(=O)[C@H](CC(N)=O)NC(=O)[C@H](CC(C)C)NC(=O)[C@H](Cc2ccc(O)cc2)NC1=O [SEQ ID NO:49, Ac-[p-F-Phe^6,Lys^12,Nle^17,Ala^19,Asp^25,Val^26,Thr^28]-VIP cyclo (Lys^21 →Asp^25)] (Ac-HSDAV[Phe(4-F)]TDNYTKLRKQ[Nle]AAKKYLNDVLT-NH2; lactam 21-25) | 390 | 0.26 |
| CCCC[C@H](NC(=O)[C@H](CCC(N)=O)NC(=O)[C@H](CCCCN)NC(=O)[C@H](CCCNC(=N)N)NC(=O)[C@H](CC(C)C)NC(=O)[C@H](CCCCN)NC(=O)[C@@H](NC(=O)[C@H](Cc1ccc(N)cc1)NC(=O)[C@H](CC(N)=O)NC(=O)[C@H](CCC(=O)O)NC(=O)[C@@H](NC(=O)[C@H](Cc1ccccc1)NC(=O)[C@@H](NC(=O)[C@H](C)NC(=O)[C@H](CC(=O)O)NC(=O)[C@H](CO)NC(=O)[C@H](Cc1c[nH]cn1)NC(C)=O)C(C)C)[C@@H](C)O)[C@@H](C)O)C(=O)N[C@@H](C)C(=O)N[C@@H](C)C(=O)N[C@@H](CCCCN)C(=O)N[C@H]1CCCCNC(=O)C[C@@H](C(=O)N[C@@H](CC(C)C)C(=O)N[C@@H](CCCCN)C(=O)N[C@@H](CCCCN)C(N)=O)NC(=O)[C@H](CC(N)=O)NC(=O)[C@H](CC(C)C)NC(=O)[C@H](Cc2ccc(O)cc2)NC1=O [SEQ ID NO:47, Ac-[Glu^8,p-NH2 -Phe^10,Lys^12,Nle^17,Ala^19,Asp^25,Leu^26,Lys^27,28]-VIP cyclo (Lys^21 →Asp^25)] (Ac-HSDAVFTEN[Phe(4-NH2)]TKLRKQ[Nle]AAKKYLNDLKK-NH2; lactam 21-25) | 320 | 0.075 |
| CCCC[C@H](NC(=O)[C@H](CCC(N)=O)NC(=O)[C@H](CCCCN)NC(=O)[C@H](CCCNC(=N)N)NC(=O)[C@H](CC(C)C)NC(=O)[C@H](CCCCN)NC(=O)[C@@H](NC(=O)[C@H](Cc1ccc(O)cc1)NC(=O)[C@H](CC(N)=O)NC(=O)[C@H](CCC(=O)O)NC(=O)[C@@H](NC(=O)[C@H](Cc1cccc2ccccc12)NC(=O)[C@@H](NC(=O)[C@H](C)NC(=O)[C@H](CC(=O)O)NC(=O)[C@H](CO)NC(=O)[C@H](Cc1c[nH]cn1)NC(C)=O)C(C)C)[C@@H](C)O)[C@@H](C)O)C(=O)N[C@@H](C)C(=O)N[C@@H](C)C(=O)N[C@@H](CCCCN)C(=O)N[C@H]1CCCCNC(=O)C[C@@H](C(=O)N[C@@H](CC(C)C)C(=O)N[C@@H](CCCCN)C(=O)N[C@@H](CCCCN)C(N)=O)NC(=O)[C@H](CC(N)=O)NC(=O)[C@H](CC(C)C)NC(=O)[C@H](Cc2ccc(O)cc2)NC1=O [SEQ ID NO:46, Ac-[1-Nal^6,Glu^8,Lys^12,Nle^17,Ala^19,Asp^25,Leu^26,Lys^27,28]-VIP cyclo (Lys^21 →Asp^25)] (Ac-HSDAV[1Nal]TENYTKLRKQ[Nle]AAKKYLNDLKK-NH2; lactam 21-25) | 260 | 0.036 |
| CCCC[C@H](NC(=O)[C@H](CCC(N)=O)NC(=O)[C@H](CCCCN)NC(=O)[C@H](CCCNC(=N)N)NC(=O)[C@H](CC(C)C)NC(=O)[C@H](CCCCN)NC(=O)[C@@H](NC(=O)[C@H](Cc1ccc(O)cc1)NC(=O)[C@H](CC(N)=O)NC(=O)[C@H](CCC(=O)O)NC(=O)[C@@H](NC(=O)[C@H](Cc1ccccc1)NC(=O)[C@@H](NC(=O)[C@H](C)NC(=O)[C@H](CC(=O)O)NC(=O)[C@H](CO)NC(=O)[C@H](Cc1c[nH]cn1)NC(C)=O)C(C)C)[C@@H](C)O)[C@@H](C)O)C(=O)N[C@@H](C)C(=O)N[C@@H](C)C(=O)N[C@@H](CCCCN)C(=O)N[C@H]1CCCCNC(=O)C[C@@H](C(=O)N[C@H](C(=O)N[C@@H](CC(C)C)C(=O)N[C@H](C(=O)NCC(=O)NCC(=O)N[C@H](C(N)=O)[C@@H](C)O)[C@@H](C)O)C(C)C)NC(=O)[C@H](CC(N)=O)NC(=O)[C@H](CC(C)C)NC(=O)[C@H](Cc2ccc(O)cc2)NC1=O [SEQ ID NO:65, Ac-[Glu^8,Lys^12,Nle^17,Ala^19,Asp^25,Val^26,Thr^28,Gly^29,30,Thr^31]-VIP cyclo (Lys^21 →Asp^25)] (Ac-HSDAVFTENYTKLRKQ[Nle]AAKKYLNDVLTGGT-NH2; lactam 21-25) | 880 | 0.84 |

Further lines, with some results ahead:

| EC50 [2] [pM] | SMILES | Bronchodilator activity of VIP analogs in guinea pigs, ED50 [1] [μg] |
| --- | --- | --- |
| 350 | CCCC[C@H](NC(=O)[C@H](CCC(N)=O)NC(=O)[C@H](CCCCN)NC(=O)[C@H](CCCNC(=N)N)NC(=O)[C@H](CC(C)C)NC(=O)[C@H](CCCCN)NC(=O)[C@@H](NC(=O)[C@H](Cc1ccc(O)cc1)NC(=O)[C@H](CC(N)=O)NC(=O)[C@H](CCC(=O)O)NC(=O)[C@@H](NC(=O)[C@H](Cc1ccccc1)NC(=O)[C@@H](NC(=O)[C@H](C)NC(=O)[C@H](CC(=O)O)NC(=O)[C@H](CO)NC(=O)[C@H](Cc1c[nH]cn1)NC(C)=O)C(C)C)[C@@H](C)O)[C@@H](C)O)C(=O)N[C@@H](C)C(=O)N[C@@H](C)C(=O)N[C@@H](CCCCN)C(=O)N[C@H]1CCCCNC(=O)C[C@@H](C(=O)N[C@@H](CC(C)C)C(=O)N[C@@H](CCCCN)C(=O)N[C@@H](CCCCN)C(=O)NCC(=O)NCC(=O)N[C@H](C(N)=O)[C@@H](C)O)NC(=O)[C@H](CC(N)=O)NC(=O)[C@H](CC(C)C)NC(=O)[C@H](Cc2ccc(O)cc2)NC1=O [SEQ ID NO:52, Ac-[Glu^8,Lys^12,Nle^17,Ala^19,Asp^25,Leu^26,Lys^27,28,Gly^29,30,Thr^31]-VIP cyclo (Lys^21 →Asp^25)] (Ac-HSDAVFTENYTKLRKQ[Nle]AAKKYLNDLKKGGT-NH2; lactam 21-25) | 0.1 |
| 780 | CCCC[C@H](NC(=O)[C@H](CCC(N)=O)NC(=O)[C@H](CCCCN)NC(=O)[C@H](CCCNC(=N)N)NC(=O)[C@H](CC(C)C)NC(=O)[C@H](CCCCN)NC(=O)[C@@H](NC(=O)[C@H](Cc1ccc(O)cc1)NC(=O)[C@H](CC(N)=O)NC(=O)[C@H](CCC(=O)O)NC(=O)[C@@H](NC(=O)[C@H](Cc1ccccc1)NC(=O)[C@@H](NC(=O)[C@H](C)NC(=O)[C@H](CC(=O)O)NC(=O)[C@H](C)NC(=O)[C@H](Cc1c[nH]cn1)NC(C)=O)C(C)C)[C@@H](C)O)[C@@H](C)O)C(=O)N[C@@H](C)C(=O)N[C@@H](C)C(=O)N[C@@H](CCCCN)C(=O)N[C@H]1CCCCNC(=O)C[C@@H](C(=O)N[C@@H](CC(C)C)C(=O)N[C@@H](CCCCN)C(=O)N[C@@H](CCCCN)C(N)=O)NC(=O)[C@H](CC(N)=O)NC(=O)[C@H](CC(C)C)NC(=O)[C@H](Cc2ccc(O)cc2)NC1=O [SEQ ID NO:53, Ac-[Ala^2,Glu^8,Lys^12,Nle^17,Ala^19,Asp^25,Leu^26,Lys^27,28]-VIP cyclo (Lys^21 →Asp^25)] (Ac-HADAVFTENYTKLRKQ[Nle]AAKKYLNDLKK-NH2; lactam 21-25) | 0.14 |
